Data published in patent US20250296971A1, “GASTRIC INHIBITORY PEPTIDE RECEPTOR LIGANDS” (priority 2021, published 2025).
*1 amine or outer side, *2 acyl side, *3 side chain or, on linkers, in order; H or OH if unused. Where a SMILES comes first, the peptide text is derived from it. Bridges are numbered along the chain shown (N, C = ends). [ ]: non-standard residue; d: D form. The star is where a group is joined. X14 = NC(=O)[C@H](CCCCNC(=O)CN1CCN2CCN3CCN(CC1)CC(=O)[O][In]([O]C(=O)C2)[O]C(=O)C3)NC(=O)CCC(=O)NCCCOCCOCCOCCCN*; X5 = NC(=O)[C@H](CCCCNC(=O)CN1CCN(CC(=O)O)CCN(CC(=O)O)CCN(CC(=O)O)CC1)NC(=O)CCC(=O)NCCCOCCOCCOCCCN*; X19 = O=C(O)CN1CCN(CC(=O)O)CCN(CC(=O)N2CCN(Cc3cc(C[*:1])cc(C[*:2])c3)CC2)CCN(CC(=O)O)CC1; NH(1-deoxy-D-glucityl) = OC[C@@H](O)[C@@H](O)[C@H](O)[C@@H](O)CN*; DOTA = O=C(O)CN1CCN(CC(=O)O)CCN(CC(=O)*)CCN(CC(=O)O)CC1; Trp(5-Cl) = N[C@@H](Cc1c[nH]c2ccc(Cl)cc12)C(=O)O; Pyridine(2,6-diCH2) = c1cc(C[*:1])nc(C[*:2])c1; Trp(6-F) = N[C@@H](Cc1c[nH]c2cc(F)ccc12)C(=O)O; 1Nal = N[C@@H](Cc1cccc2ccccc12)C(=O)O; mXylylene = c1cc(C[*:1])cc(C[*:2])c1; X7 = c1cc(CSCCN[*:2])cc(C[*:1])c1; Hyp = O=C(O)[C@@H]1C[C@@H](O)CN1; X1 = O=C(CN1CCC(N[*:1])CC1)[*:2]; Cha = N[C@@H](CC1CCCCC1)C(=O)O; Suc = O=C(CCC(=O)[*:2])[*:1]; Ac6c = NC1(C(=O)O)CCCCC1; Api = NC1(C(=O)O)CCNCC1; Thp = NC1(C(=O)O)CCOCC1; Aib = CC(C)(N)C(=O)O

target: T1, GIPR (CHO-K1-hGIPR cells) (Homo sapiens, UniProt P48546); assay: FACS binding assay; conditions: competition with 20 nM GIP-057, 4° C. for 1 hour, read-out: pIC50 Category (converted)
T1 construct: host or cells: CHO-K1
T1 sequence (P48546 22-466): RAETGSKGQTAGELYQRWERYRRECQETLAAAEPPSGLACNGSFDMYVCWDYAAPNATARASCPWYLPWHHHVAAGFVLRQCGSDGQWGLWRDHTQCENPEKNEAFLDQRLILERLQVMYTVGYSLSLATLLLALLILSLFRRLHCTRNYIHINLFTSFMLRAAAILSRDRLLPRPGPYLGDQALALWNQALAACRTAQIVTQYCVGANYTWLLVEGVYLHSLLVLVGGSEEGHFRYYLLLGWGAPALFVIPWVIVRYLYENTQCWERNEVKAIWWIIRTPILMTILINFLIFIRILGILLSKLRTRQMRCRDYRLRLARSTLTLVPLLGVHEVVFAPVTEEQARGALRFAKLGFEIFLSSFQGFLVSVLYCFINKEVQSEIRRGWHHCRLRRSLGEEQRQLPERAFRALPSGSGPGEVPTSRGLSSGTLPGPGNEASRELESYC
Procedure, shortened: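 Median fluorescence in the APC channel, measured on washed CHO-K1 cells overexpressing human GIPR, was fitted by four-parameter logistic regression against peptide concentration to yield EC50 or IC50 values. Secondary labelling used APC-streptavidin (1 μg/mL, 30 min, ice).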

| Compound | IC50 |
| --- | --- |
| CC[C@H](C)[C@@H]1NC(=O)[C@H](CC(C)C)NC(=O)[C@@H](C)NC(=O)[C@@H](NC(=O)[C@@H](CC(C)C)NC(=O)[C@H](CCC(=O)O)NC(=O)[C@@H]2CCCN2C(=O)[C@H](Cc2c[nH]c3ccccc23)NC(=O)[C@H](Cc2c[nH]c3ccccc23)NC(=O)CCC(=O)O)CSCc2cc(cc(CN3CCN(C(=O)CN4CCN(CC(=O)O)CCN(CC(=O)O)CCN(CC(=O)O)CC4)CC3)c2)CSC[C@@H](C(N)=O)NC1=O [GIP-286, HO-Succinyl-Trp-Trp-Pro-Glu-leu-[Cys(tMeBn(DOTA-PP))-ala-Leu-Ile-Cys]-NH2] (Suc-WWPE[dL]C[dA]LIC-NH2; linker 6-10 via X19) | > 1000 nM |
| CC[C@H](C)[C@@H]1NC(=O)[C@H](CC(C)C)NC(=O)C2(CCOCC2)NC(=O)[C@@H](NC(=O)[C@@H](CC(C)C)NC(=O)[C@@H]2CCCN2C(=O)[C@@H]2C[C@@H](O)CN2C(=O)[C@H](Cc2c[nH]c3ccc(Cl)cc23)NC(=O)[C@H](Cc2c[nH]c3ccccc23)NC(=O)[C@H](CC(=O)O)NC(C)=O)CSCc2cccc(n2)CSC[C@@H](C(N)=O)NC1=O [GIP-398, Ac-Asp-Trp-5Clw-Hyp-Pro-leu-[Cys(2Lut)-Thp-Leu-Ile-Cys]-NH2] (Ac-DW[Trp(5-Cl)][Hyp]P[dL]C[Thp]LIC-NH2; linker 7-11 via Pyridine(2,6-diCH2)) | 10 to 79.4 nM |
| CC[C@H](C)[C@@H]1NC(=O)[C@H](CC2CCCCC2)NC(=O)C2(CCOCC2)NC(=O)[C@@H](NC(=O)[C@@H](CC(C)C)NC(=O)[C@H](CCC(=O)O)NC(=O)[C@@H]2C[C@@H](O)CN2C(=O)[C@H](Cc2c[nH]c3ccc(Cl)cc23)NC(=O)[C@H](Cc2c[nH]c3ccccc23)NC(=O)[C@H](CC(=O)O)NC(C)=O)CSCc2cccc(n2)CSC[C@@H](C(N)=O)NC1=O [GIP-383, Ac-Asp-Trp-5Clw-Hyp-Glu-leu-[Cys(2Lut)-Thp-Cha-Ile-Cys]-NH2] (Ac-DW[Trp(5-Cl)][Hyp]E[dL]C[Thp][Cha]IC-NH2; linker 7-11 via Pyridine(2,6-diCH2)) | < 10 nM |
| CC[C@H](C)[C@@H]1NC(=O)[C@H](CC(C)C)NC(=O)C(C)(C)NC(=O)[C@@H](NC(=O)[C@H](CC(C)C)NC(=O)[C@H](CCC(=O)O)NC(=O)[C@@H]2CCCN2C(=O)[C@H](Cc2c[nH]c3ccccc23)NC(=O)[C@H](Cc2c[nH]c3ccccc23)NC(=O)[C@H](CC(=O)O)NC(C)=O)CSCc2cccc(c2)CSCCNC1=O [GIP-251, Ac-Asp-Trp-Tip-Pro-Glu-Leu-[Cys(3MeBn)-Aib-Leu-Ile-AET]] (Ac-DWWPELC[Aib]LI; linker 7-C via X7) | 10 to 79.4 nM |
| CC[C@H](C)[C@@H]1NC(=O)[C@H](CC(C)C)NC(=O)C2(CCOCC2)NC(=O)[C@@H](NC(=O)[C@@H](CC(C)C)NC(=O)[C@H](CCC(=O)O)NC(=O)[C@@H]2C[C@@H](O)CN2C(=O)[C@H](Cc2c[nH]c3ccc(Cl)cc23)NC(=O)[C@H](Cc2c[nH]c3ccc(Cl)cc23)NC(=O)[C@H](CC(=O)O)NC(C)=O)CSCc2cccc(n2)CSC[C@@H](C(N)=O)NC1=O [GIP-379, Ac-Asp-5Clw-5Clw-Hyp-Glu-leu-[Cys(2Lut)-Thp-Leu-Ile-Cys]-NH2] (Ac-D[Trp(5-Cl)][Trp(5-Cl)][Hyp]E[dL]C[Thp]LIC-NH2; linker 7-11 via Pyridine(2,6-diCH2)) | < 10 nM |
| CC[C@H](C)[C@@H]1NC(=O)[C@H](CC(C)C)NC(=O)[C@H](C)NC(=O)[C@@H](NC(=O)[C@H](CC(C)C)NC(=O)[C@H](C)NC(=O)[C@@H]2CCCN2C(=O)[C@H](Cc2c[nH]c3ccccc23)NC(=O)[C@H](Cc2c[nH]c3ccccc23)NC(=O)[C@H](CC(=O)O)NC(=O)[C@H](Cc2ccc(O)cc2)NC(=O)[C@@H](N)CCSC)CSCc2cccc(c2)CSC[C@@H](C(N)=O)NC1=O [GIP-335] (H-MYDWWPALCALIC-NH2; linker 9-13 via mXylylene) | > 1000 nM |

same assay, conditions: competition with 20 nM GIP-057, 4° C., 1 hour, read-out: pIC50 Category (converted)

| Compound | IC50 |
| --- | --- |
| CC[C@H](C)[C@@H]1NC(=O)[C@H](CC(C)C)NC(=O)C2(CCCCC2)NC(=O)[C@@H](NC(=O)[C@@H](CC(C)C)NC(=O)[C@H](CCC(=O)O)NC(=O)[C@@H]2CCCN2C(=O)[C@H](Cc2cccc3ccccc23)NC(=O)[C@H](Cc2c[nH]c3ccccc23)NC(=O)[C@H](CC(=O)O)NC(C)=O)CSCc2cccc(c2)CSC[C@@H](C(=O)NCCCOCCOCCOCCCNC(=O)CCC(=O)N[C@@H](CCCCNC(=O)CN2CCN3CCN4CCN(CC2)CC(=O)[O][In]([O]C(=O)C3)[O]C(=O)C4)C(N)=O)NC1=O [GIP-166, Ac-Asp-Trp-1Ni-Pro-Glu-leu-[Cys(3MeBn)-Egz-Leu-Ile-Cys]-Ttds-Lys(InDOTA)-NH2] (Ac-DW[1Nal]PE[dL]C[Ac6c]LIC-X14; linker 7-11 via mXylylene) | < 10 nM |
| CC[C@H](C)[C@@H]1NC(=O)[C@H](CC(C)C)NC(=O)C2(CCN(C(=O)CN3CCN(CC(=O)O)CCN(CC(=O)O)CCN(CC(=O)O)CC3)CC2)NC(=O)[C@@H](NC(=O)[C@@H](CC(C)C)NC(=O)[C@H](CCC(=O)O)NC(=O)[C@@H]2C[C@@H](O)CN2C(=O)[C@H](Cc2c[nH]c3ccc(Cl)cc23)NC(=O)[C@H](Cc2c[nH]c3ccccc23)NC(=O)[C@H](CC(=O)O)NC(C)=O)CSCc2cccc(n2)CSC[C@@H](C(N)=O)NC1=O [GIP-122, Ac-Asp-Trp-5Clw-Hyp-Glu-leu-[Cys(2Lut)-Apc(DOTA)-Leu-Ile-Cys]-NH2] (Ac-DW[Trp(5-Cl)][Hyp]E[dL]C[Api](DOTA)LIC-NH2; linker 7-11 via Pyridine(2,6-diCH2)) | < 10 nM |
| CC[C@H](C)[C@@H]1NC(=O)[C@H](CC(C)C)NC(=O)C(C)(C)NC(=O)[C@@H](NC(=O)[C@@H](CC(C)C)NC(=O)[C@H](CCC(=O)O)NC(=O)[C@@H]2CCCN2C(=O)[C@H](Cc2cccc3ccccc23)NC(=O)[C@H](Cc2c[nH]c3cc(F)ccc23)NC(=O)[C@H](CC(=O)O)NC(C)=O)CSCc2cccc(c2)CSC[C@@H](C(=O)NCCCOCCOCCOCCCNC(=O)CCC(=O)N[C@@H](CCCCNC(=O)CN2CCN(CC(=O)O)CCN(CC(=O)O)CCN(CC(=O)O)CC2)C(N)=O)NC1=O [GIP-084, Ac-Asp-6Fw-Ni-Pro-Glu-leu-[Cys(3MeBn)-Aib-Leu-Ile-Cys]-Ttds-Lys(DOTA)-NH2] (Ac-D[Trp(6-F)][1Nal]PE[dL]C[Aib]LIC-X5; linker 7-11 via mXylylene) | < 10 nM |
| CC[C@H](C)[C@@H]1NC(=O)[C@H](CC(C)C)NC(=O)C2(CCOCC2)NC(=O)[C@@H](NC(=O)[C@@H](CC(C)C)NC(=O)[C@H](CCC(=O)O)NC(=O)[C@@H]2C[C@@H](O)CN2C(=O)[C@H](Cc2c[nH]c3ccc(Cl)cc23)NC(=O)[C@H](Cc2c[nH]c3ccccc23)NC(=O)[C@H](CC(=O)O)NC(=O)[C@@H](CCC(=O)NC[C@H](O)[C@@H](O)[C@H](O)[C@H](O)CO)NC(=O)CN2CCN(CC(=O)O)CCN(CC(=O)O)CCN(CC(=O)O)CC2)CSCc2cccc(n2)CSC[C@@H](C(=O)NC2CCN(CC(=O)N[C@H](CCC(=O)NC[C@H](O)[C@@H](O)[C@H](O)[C@H](O)CO)C(N)=O)CC2)NC1=O [GIP-036, DOTA-glu(AGLU)-Asp-Trp-5Clw-Hyp-Glu-leu-[Cys(2Lut)-Thp-Leu-Ile-Cys]-APAc-glu(AGLU)-NH2] ({DOTA}-[dE](NH(1-deoxy-D-glucityl))DW[Trp(5-Cl)][Hyp]E[dL]C[Thp]LIC[X1][dE](NH(1-deoxy-D-glucityl))-NH2; linker 8-12 via Pyridine(2,6-diCH2)) | < 10 nM |
